Source: ChEMBL document CHEMBL1145078, “Discovery and preclinical characterization of (+)-3-[4-(1- piperidinoethoxy)phenyl]spiro[indene- 1,1'-indane]-5,5'-diol hydrochloride: a promising nonsteroidal estrogen receptor agonist for hot flush” (J Med Chem, 2003)

Organism: Rattus norvegicus
Test: Dose required to prevent loss of total bone mineral density of rat distal femur
Assay type: functional

## Cl.Oc1ccc2c(c1)CCC21C=C(c2ccc(OCCN3CCCCC3)cc2)c2cc(O)ccc21 (single isomer, unassigned; (+))
  Dose: 0.1 mg/kg/day
